Laboratory results as given in ChEMBL document CHEMBL5338795, “Novel Triazoles with Potent and Broad-Spectrum Antifungal Activity In Vitro and In Vivo” (J Med Chem, 2023).
≈ marks a conversion by molar mass, not a printed value. Blank lines part the entries; values can stand above or below the compound they belong to.

Experiments:
Assay type in all cases: functional
Candida albicans [1] = test: Antifungal activity against Candida albicans SC5314 assessed as reduction in fungal growth incubated for 24 hrs by CLSI based microdilution analysis
Candida albicans [2] = test: Antifungal activity against fluconazole-resistant Candida albicans 102 assessed as inhibition of fungal growth measured for 24 hrs by CLSI based microdilution analysis
Nakaseomyces glabratus = test: Antifungal activity against Candida glabrata ATCC 15126 assessed as reduction in fungal growth incubated for 24 hrs by CLSI based microdilution analysis
Candida tropicalis = test: Antifungal activity against Candida tropicalis ATCC 750 assessed as reduction in fungal growth incubated for 24 hrs by CLSI based microdilution analysis
Candida albicans [3] = test: Antifungal activity against fluconazole-resistant Candida albicans 15 assessed as inhibition of fungal growth measured for 24 hrs by CLSI based microdilution analysis
Candida albicans [4] = test: Antifungal activity against fluconazole-resistant Candida albicans 901 assessed as inhibition of fungal growth measured for 24 hrs by CLSI based microdilution analysis
Candida parapsilosis = test: Antifungal activity against Candida parapsilosis ATCC 22019 assessed as reduction in fungal growth incubated for 24 hrs by CLSI based microdilution analysis; settings: Lodderomyces parapsilosis
Candida albicans [5] = test: Antifungal activity against fluconazole-resistant Candida albicans 24D assessed as inhibition of fungal growth measured for 24 hrs by CLSI based microdilution analysis
Candida albicans [6] = test: Antifungal activity against fluconazole-resistant Candida albicans 13 assessed as inhibition of fungal growth measured for 24 hrs by CLSI based microdilution analysis
Aspergillus fumigatus = test: Antifungal activity against Aspergillus fumigatus CGMCC3 7795 assessed as reduction in fungal growth incubated for 48 hrs by CLSI based microdilution analysis
Cryptococcus neoformans = test: Antifungal activity against Cryptococcus neoformans CGMCC3 1563 assessed as reduction in fungal growth incubated for 72 hrs by CLSI based microdilution analysis
Candida albicans [7] = test: Antifungal activity against fluconazole-resistant Candida albicans 112869 assessed as inhibition of fungal growth measured for 24 hrs by CLSI based microdilution analysis
[8] = test system: Meyerozyma guilliermondii; test: Antifungal activity against Meyerozyma guilliermondii ATCC 6260 assessed as reduction in fungal growth incubated for 24 hrs by CLSI based microdilution analysis

SMILES: COc1ccc2c(ccn2CCCCCCCCCN2CCN(CC(O)(Cn3cncn3)c3ccc(F)cc3F)CC2)c1 (stereo not given)
MIC80 (Candida albicans [1]): 0.5 µg/mL (≈ 0.841 µM)

SMILES: COc1ccc2c(ccn2CCCCCCCCCCN2CCN(CC(O)(Cn3cncn3)c3ccc(F)cc3F)CC2)c1 (stereo not given)
MIC80 (Candida albicans [1]): 0.5 µg/mL (≈ 0.821 µM)

SMILES: Cc1ccc2c(c1)C(=O)C(=O)N2CCN1CCN(CC(O)(Cn2cncn2)c2ccc(F)cc2F)CC1 (stereo not given)
MIC80 (Candida albicans [1]): 0.125 µg/mL (≈ 0.245 µM)

SMILES: Cc1ccc2c(ccn2CCCN2CCN(CC(O)(Cn3cncn3)c3ccc(F)cc3F)CC2)c1 (stereo not given)
MIC80 (Candida albicans [2]): 0.062 µg/mL (≈ 0.125 µM) | MIC80 (Nakaseomyces glabratus): 0.625 µg/mL (≈ 1.26 µM) | MIC80 (Candida tropicalis): 0.625 µg/mL (≈ 1.26 µM) | MIC80 (Candida albicans [3]): 2.5 µg/mL (≈ 5.05 µM) | MIC80 (Candida albicans [1]): 0.062 µg/mL (≈ 0.125 µM) | MIC80 (Candida albicans [4]): 5 µg/mL (≈ 10.1 µM) | MIC80 (Candida parapsilosis): 0.125 µg/mL (≈ 0.253 µM) | MIC80 (Candida albicans [5]): 0.125 µg/mL (≈ 0.253 µM) | MIC80 (Candida albicans [6]): 0.062 µg/mL (≈ 0.125 µM) | MIC80 (Aspergillus fumigatus): 5 µg/mL (≈ 10.1 µM) | MIC80 (Cryptococcus neoformans): 0.062 µg/mL (≈ 0.125 µM) | MIC80 (Candida albicans [7]): 0.25 µg/mL (≈ 0.505 µM) | MIC80 [8]: 0.125 µg/mL (≈ 0.253 µM)

SMILES: OC(CN1CCN(CCCn2ccc3ccc(Br)cc32)CC1)(Cn1cncn1)c1ccc(F)cc1F (stereo not given)
MIC80 (Candida albicans [2]): 0.125 µg/mL (≈ 0.223 µM) | MIC80 (Nakaseomyces glabratus): 0.312 µg/mL (≈ 0.558 µM) | MIC80 (Candida tropicalis): 0.312 µg/mL (≈ 0.558 µM) | MIC80 (Candida albicans [3]): 2.5 µg/mL (≈ 4.47 µM) | MIC80 (Candida albicans [1]): 0.062 µg/mL (≈ 0.111 µM) | MIC80 (Candida albicans [4]): 2.5 µg/mL (≈ 4.47 µM) | MIC80 (Candida parapsilosis): 0.062 µg/mL (≈ 0.111 µM) | MIC80 (Candida albicans [5]): 0.125 µg/mL (≈ 0.223 µM) | MIC80 (Candida albicans [6]): 0.031 µg/mL (≈ 0.0554 µM) | MIC80 (Aspergillus fumigatus): 1.25 µg/mL (≈ 2.23 µM) | MIC80 (Cryptococcus neoformans): 0.031 µg/mL (≈ 0.0554 µM) | MIC80 (Candida albicans [7]): 0.5 µg/mL (≈ 0.894 µM) | MIC80 [8]: 0.031 µg/mL (≈ 0.0554 µM)

SMILES: OC(CN1CCN(CCCCCCCCCCn2ccc3cc(Cl)ccc32)CC1)(Cn1cncn1)c1ccc(F)cc1F (stereo not given)
MIC80 (Candida albicans [1]): 0.5 µg/mL (≈ 0.815 µM)

SMILES: O=[N+]([O-])c1ccc2c(ccn2CCCN2CCN(CC(O)(Cn3cncn3)c3ccc(F)cc3F)CC2)c1 (stereo not given)
MIC80 (Candida albicans [2]): 0.031 µg/mL (≈ 0.059 µM) | MIC80 (Nakaseomyces glabratus): 0.625 µg/mL (≈ 1.19 µM) | MIC80 (Candida tropicalis): 0.312 µg/mL (≈ 0.594 µM) | MIC80 (Candida albicans [3]): 0.625 µg/mL (≈ 1.19 µM) | MIC80 (Candida albicans [1]): 0.031 µg/mL (≈ 0.059 µM) | MIC80 (Candida albicans [4]): 1.25 µg/mL (≈ 2.38 µM) | MIC80 (Candida parapsilosis): 0.062 µg/mL (≈ 0.118 µM) | MIC80 (Candida albicans [5]): 0.031 µg/mL (≈ 0.059 µM) | MIC80 (Candida albicans [6]): 0.062 µg/mL (≈ 0.118 µM) | MIC80 (Aspergillus fumigatus): 1.25 µg/mL (≈ 2.38 µM) | MIC80 (Cryptococcus neoformans): 0.031 µg/mL (≈ 0.059 µM) | MIC80 (Candida albicans [7]): 0.062 µg/mL (≈ 0.118 µM) | MIC80 [8]: 0.125 µg/mL (≈ 0.238 µM)

SMILES: O[C@](CN1CCN(CCn2ccc3cc(Br)ccc32)CC1)(Cn1cncn1)c1ccc(F)cc1F
MIC80 (Candida albicans [1]): 25 µg/mL (≈ 45.8 µM)

SMILES: CCC(C)n1ncn(-c2ccc(N3CCN(c4ccc(OCC5COC(Cn6cncn6)(c6ccc(Cl)cc6Cl)O5)cc4)CC3)cc2)c1=O (stereo not given) [ITRACONAZOLE]
MIC80 (Candida albicans [2]): > 100 µg/mL | MIC80 (Nakaseomyces glabratus): 0.625 µg/mL (≈ 0.886 µM) | MIC80 (Candida tropicalis): 0.625 µg/mL (≈ 0.886 µM) | MIC80 (Candida albicans [3]): > 100 µg/mL | MIC80 (Candida albicans [1]): 0.062 µg/mL (≈ 0.0879 µM) | MIC80 (Candida albicans [4]): > 100 µg/mL | MIC80 (Candida parapsilosis): 0.25 µg/mL (≈ 0.354 µM) | MIC80 (Candida albicans [5]): > 100 µg/mL | MIC80 (Candida albicans [6]): > 100 µg/mL | MIC80 (Aspergillus fumigatus): 0.312 µg/mL (≈ 0.442 µM) | MIC80 (Cryptococcus neoformans): 0.062 µg/mL (≈ 0.0879 µM) | MIC80 (Candida albicans [7]): > 100 µg/mL | MIC80 [8]: 0.25 µg/mL (≈ 0.354 µM)

SMILES: OC(CN1CCN(CCCCn2ccc3cc(Br)ccc32)CC1)(Cn1cncn1)c1ccc(F)cc1F (stereo not given)
MIC80 (Candida albicans [2]): 0.062 µg/mL (≈ 0.108 µM) | MIC80 (Nakaseomyces glabratus): 0.312 µg/mL (≈ 0.544 µM) | MIC80 (Candida tropicalis): 0.312 µg/mL (≈ 0.544 µM) | MIC80 (Candida albicans [3]): 1.25 µg/mL (≈ 2.18 µM) | MIC80 (Candida albicans [1]): 0.062 µg/mL (≈ 0.108 µM) | MIC80 (Candida albicans [4]): 2.5 µg/mL (≈ 4.36 µM) | MIC80 (Candida parapsilosis): 0.062 µg/mL (≈ 0.108 µM) | MIC80 (Candida albicans [5]): 0.125 µg/mL (≈ 0.218 µM) | MIC80 (Candida albicans [6]): 0.062 µg/mL (≈ 0.108 µM) | MIC80 (Aspergillus fumigatus): 1.25 µg/mL (≈ 2.18 µM) | MIC80 (Cryptococcus neoformans): 0.031 µg/mL (≈ 0.0541 µM) | MIC80 (Candida albicans [7]): 0.25 µg/mL (≈ 0.436 µM) | MIC80 [8]: 0.125 µg/mL (≈ 0.218 µM)

SMILES: O=C1C(=O)N(CCN2CCN(CC(O)(Cn3cncn3)c3ccc(F)cc3F)CC2)c2ccc(Br)cc21 (stereo not given)
MIC80 (Candida albicans [1]): 0.062 µg/mL (≈ 0.108 µM)

SMILES: OC(CN1CCN(CCn2ccc3cc(Cl)c(Cl)cc32)CC1)(Cn1cncn1)c1ccc(F)cc1F (stereo not given)
MIC80 (Candida albicans [2]): 0.062 µg/mL (≈ 0.116 µM) | MIC80 (Nakaseomyces glabratus): 0.312 µg/mL (≈ 0.583 µM) | MIC80 (Candida tropicalis): 0.312 µg/mL (≈ 0.583 µM) | MIC80 (Candida albicans [3]): 0.625 µg/mL (≈ 1.17 µM) | MIC80 (Candida albicans [1]): 0.031 µg/mL (≈ 0.0579 µM) | MIC80 (Candida albicans [4]): 2.5 µg/mL (≈ 4.67 µM) | MIC80 (Candida parapsilosis): 0.125 µg/mL (≈ 0.233 µM) | MIC80 (Candida albicans [5]): 0.062 µg/mL (≈ 0.116 µM) | MIC80 (Candida albicans [6]): 0.062 µg/mL (≈ 0.116 µM) | MIC80 (Aspergillus fumigatus): 5 µg/mL (≈ 9.34 µM) | MIC80 (Cryptococcus neoformans): 0.062 µg/mL (≈ 0.116 µM) | MIC80 (Candida albicans [7]): 0.25 µg/mL (≈ 0.467 µM) | MIC80 [8]: 0.125 µg/mL (≈ 0.233 µM)

Now from value to compound:

MIC80 (Candida albicans [1]): 0.062 µg/mL (≈ 0.104 µM)
SMILES: OC(CN1CCN(CCn2ncc3cc(I)ccc32)CC1)(Cn1cncn1)c1ccc(F)cc1F (stereo not given)

MIC80 (Candida albicans [1]): 0.125 µg/mL (≈ 0.292 µM)
SMILES: OC(CN1CCN(CCc2ccccc2)CC1)(Cn1cncn1)c1ccc(F)cc1F (stereo not given)

MIC80 (Candida albicans [1]): 0.062 µg/mL (≈ 0.13 µM)
SMILES: O=C(c1ccc2ccccc2c1)N1CCN(CC(O)(Cn2cncn2)c2ccc(F)cc2F)CC1 (stereo not given)

MIC80 (Candida albicans [1]): 0.125 µg/mL (≈ 0.218 µM)
SMILES: O=C(c1cc2cc(Br)ccc2oc1=O)N1CCN(CC(O)(Cn2cncn2)c2ccc(F)cc2F)CC1 (stereo not given)

MIC80 (Candida albicans [1]): 0.062 µg/mL (≈ 0.125 µM)
SMILES: COc1ccc2c(cnn2CCN2CCN(CC(O)(Cn3cncn3)c3ccc(F)cc3F)CC2)c1 (stereo not given)

MIC80 (Candida albicans [1]): 25 µg/mL (≈ 74.1 µM)
SMILES: CN1CCN(CC(O)(Cn2cncn2)c2ccc(F)cc2F)CC1 (stereo not given)

MIC80 (Candida albicans [1]): 0.062 µg/mL (≈ 0.125 µM)
SMILES: O=C(c1cc2ccccc2oc1=O)N1CCN(CC(O)(Cn2cncn2)c2ccc(F)cc2F)CC1 (stereo not given)

MIC80 (Candida albicans [1]): 0.031 µg/mL (≈ 0.0664 µM)
SMILES: OC(CN1CCN(CCn2ccc3ccccc32)CC1)(Cn1cncn1)c1ccc(F)cc1F (stereo not given)

MIC80 (Candida albicans [1]): 0.25 µg/mL (≈ 0.507 µM)
SMILES: COc1ccc(S(=O)(=O)N2CCN(CC(O)(Cn3cncn3)c3ccc(F)cc3F)CC2)cc1 (stereo not given)

MIC80 (Candida albicans [1]): 0.125 µg/mL (≈ 0.213 µM)
SMILES: OC(CN1CCN(CCCCCn2ccc3cc(Br)ccc32)CC1)(Cn1cncn1)c1ccc(F)cc1F (stereo not given)

MIC80 (Candida albicans [1]): 0.25 µg/mL (≈ 0.523 µM)
SMILES: OC(CN1CCN(CCc2cccc3ccccc23)CC1)(Cn1cncn1)c1ccc(F)cc1F (stereo not given)

MIC80 (Candida albicans [1]): 0.125 µg/mL (≈ 0.261 µM)
SMILES: O=C(c1ccc2ncccc2c1)N1CCN(CC(O)(Cn2cncn2)c2ccc(F)cc2F)CC1 (stereo not given)

MIC80 (Candida albicans [1]): 0.125 µg/mL (≈ 0.237 µM)
SMILES: OC(CN1CCN(CCCCCn2ccc3ccc(F)cc32)CC1)(Cn1cncn1)c1ccc(F)cc1F (stereo not given)

MIC80 (Candida albicans [1]): 0.25 µg/mL (≈ 0.489 µM)
SMILES: O=c1ccc2ccc(OCCN3CCN(CC(O)(Cn4cncn4)c4ccc(F)cc4F)CC3)cc2o1 (stereo not given)

MIC80 (Candida albicans [1]): 0.062 µg/mL (≈ 0.124 µM)
SMILES: OC(CN1CCN(CCn2ccc3cc(Cl)cnc32)CC1)(Cn1cncn1)c1ccc(F)cc1F (stereo not given)

MIC80 (Candida albicans [1]): 0.125 µg/mL (≈ 0.256 µM)
SMILES: OC(CN1CCN(CCOc2ccc3c(c2)OCO3)CC1)(Cn1cncn1)c1ccc(F)cc1F (stereo not given)
